Reference: PubChem BioAssay AID328 (DTP/NCI, 2004)
“And” between values parts separate entries of the source, which are not always exact repeats. Equal values may be shown once. Toxic doses and inconclusive results are not listed.

Tested on: BDF1 mice, P388 leukemia ip, median survival T/C
Assay: NCI In Vivo Anticancer Drug Screen. Data for tumor model P388 Leukemia (intraperitoneal) in B6D2F1 (BDF1) mice
Conditions: endpoint: median survival time, higher = longer survival
In short: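 Vehicle-dosed animals serve as the reference; survival of compound-dosed, tumour-implanted mice is divided by it.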

[1] = dose: 50.0 mg/kg/injection, schedule: Q01DX009 (ip), vehicle: saline
[2] = dose: 100.0 mg/kg/injection, schedule: Q01DX009 (ip), vehicle: saline
[3] = dose: 100.0 mg/kg/injection, schedule: Q04DX003 (ip), vehicle: Klucel (hydroxypropylcellulose) (HPC)
[4] = dose: 200.0 mg/kg/injection, schedule: Q04DX003 (ip), vehicle: Klucel (hydroxypropylcellulose) (HPC)
[5] = dose: 400.0 mg/kg/injection, schedule: Q04DX003 (ip), vehicle: Klucel (hydroxypropylcellulose) (HPC)
[6] = dose: 25.0 mg/kg/injection, schedule: Q01DX009 (ip), vehicle: saline
[7] = dose: 100.0 mg/kg/injection, schedule: Q01DX009 (ip), vehicle: saline with Tween-80
[8] = dose: 200.0 mg/kg/injection, schedule: Q01DX009 (ip), vehicle: saline with Tween-80
[9] = dose: 100.0 mg/kg/injection, schedule: Q04DX003 (ip), vehicle: saline with Tween-80
[10] = dose: 200.0 mg/kg/injection, schedule: Q04DX003 (ip), vehicle: saline with Tween-80
[11] = dose: 400.0 mg/kg/injection, schedule: Q04DX003 (ip), vehicle: saline with Tween-80
[12] = dose: 100.0 mg/kg/injection, schedule: Q01DX009 (ip), vehicle: Klucel (hydroxypropylcellulose) (HPC)
[13] = dose: 100.0 mg/kg/injection, schedule: Q01DX001 (ip), vehicle: saline with Tween-80
[14] = dose: 50.0 mg/kg/injection, schedule: Q01DX009 (ip), vehicle: saline with Tween-80

CSc1ccc(C(O)CNC(C)C)cc1C (centres undefined)
T/C [1]: 100 % of control
T/C [2]: 100 % of control

CC1(C)O[C@]2(C)CC[C@@H]1[C@@H](O)[C@@H]2N1CCCC1
T/C (dose: 50.0 mg/kg/injection, schedule: Q01DX005 (ip), vehicle: saline): 95 % of control
T/C (dose: 100.0 mg/kg/injection, schedule: Q01DX005 (ip), vehicle: saline): 106 % of control
T/C (dose: 200.0 mg/kg/injection, schedule: Q01DX005 (ip), vehicle: saline): 106 % of control

O=[N+]([O-])c1ccc(C(Br)C(Br)c2ccccc2Cl)cc1 (centres undefined)
T/C [3]: 100 % of control
T/C [4]: 100 % of control
T/C [5]: 100 % of control

Nc1cncc2ncc(-c3ccc(Cl)c(Cl)c3)nc12
T/C (dose: 100.0 mg/kg/injection, schedule: Q01DX001 (ip), vehicle: saline sonified): 91 % of control
T/C (dose: 200.0 mg/kg/injection, schedule: Q01DX001 (ip), vehicle: saline sonified): 100 % of control
T/C (dose: 400.0 mg/kg/injection, schedule: Q01DX001 (ip), vehicle: saline sonified): 104 % of control

NN(c1cccc(C(F)(F)F)c1)c1ccccn1
T/C (dose: 12.5 mg/kg/injection, schedule: Q01DX009 (ip), vehicle: saline): 108 % of control
T/C [6]: 106 % of control
T/C [1]: 115 % of control

COC(=O)CCCCI
T/C (dose: 50.0 mg/kg/injection, schedule: Q01DX005 (ip), vehicle: saline with Tween-80): 105 % of control
T/C (dose: 100.0 mg/kg/injection, schedule: Q01DX005 (ip), vehicle: saline with Tween-80): 110 % of control
T/C (dose: 200.0 mg/kg/injection, schedule: Q01DX005 (ip), vehicle: saline with Tween-80): 107 % of control

c1csc(CSc2ncnc3nc[nH]c23)c1
T/C [7]: 100 % of control
T/C [8]: 100 % of control

O=C(NC(C(=O)O)c1ccccc1)OCc1ccccc1 (centres undefined)
T/C [9]: 104 % of control
T/C [10]: 109 % of control
T/C [11]: 100 % of control

COc1ccc(CCNC(=O)Cc2ccc(OC)c(OC)c2)cc1OC
T/C [9]: 100 % of control
T/C [10]: 95 % of control
T/C [11]: 100 % of control

CNc1nc2c(N)ncnc2n1C1OC(CO)C(O)C1O (centres undefined)
T/C (dose: 6.25 mg/kg/injection, schedule: Q01DX009 (ip), vehicle: saline with Tween-80): 105 % of control
T/C (dose: 12.5 mg/kg/injection, schedule: Q01DX009 (ip), vehicle: saline with Tween-80): 123 % of control

COc1cc(Cc2nccc3cc(OC)c(OC)cc23)c(C(C)=O)cc1OC
T/C (dose: 8.0 mg/kg/injection, schedule: Q01DX009 (ip), vehicle: saline): 153 % of control
T/C (dose: 8.2 mg/kg/injection, schedule: Q01DX009 (ip), vehicle: saline sonified): 150 % of control
T/C (dose: 12.5 mg/kg/injection, schedule: Q01DX009 (ip), vehicle: saline sonified): 155 % of control
T/C (dose: 18.75 mg/kg/injection, schedule: Q01DX009 (ip), vehicle: saline sonified): 195 % of control

Cc1c(Cl)cccc1NC(=O)Nc1cccc2ccccc12
T/C [9]: 91 % of control
T/C [10]: 100 % of control
T/C [11]: 108 % of control

COc1cc(NS(=O)(=O)c2ccccc2)ccc1C
T/C (dose: 25.0 mg/kg/injection, schedule: Q01DX009 (ip), vehicle: Klucel (hydroxypropylcellulose) (HPC)): 100 % of control
T/C (dose: 50.0 mg/kg/injection, schedule: Q01DX009 (ip), vehicle: Klucel (hydroxypropylcellulose) (HPC)): 100 % of control
T/C [12]: 89 % of control and 110 % of control
T/C [3]: 104 % of control
T/C [4]: 95 % of control
T/C [5]: 95 % of control

O=S(=O)(O)N(O)c1ccccc1
T/C (dose: 25.0 mg/kg/injection, schedule: Q01DX001 (ip), vehicle: saline with Tween-80): 105 % of control
T/C (dose: 50.0 mg/kg/injection, schedule: Q01DX001 (ip), vehicle: saline with Tween-80): 102 % of control
T/C [13]: 100 % of control
T/C (dose: 200.0 mg/kg/injection, schedule: Q01DX001 (ip), vehicle: saline with Tween-80): 99 % of control and 105 % of control
T/C (dose: 400.0 mg/kg/injection, schedule: Q01DX001 (ip), vehicle: saline with Tween-80): 101 % of control

C[C@]1(O)CC[C@H]2[C@@H]3CCC4=CC(=O)CC[C@]4(C)[C@@]3(F)[C@@H](O)C[C@@]21C
T/C [3]: 100 % of control
T/C [4]: 95 % of control
T/C [5]: 95 % of control

CCCCCC/C=C/C#CCCCCCCCC(=O)O
T/C (dose: 37.5 mg/kg/injection, schedule: Q01DX009 (ip), vehicle: Klucel (hydroxypropylcellulose) (HPC)): 106 % of control
T/C (dose: 75.0 mg/kg/injection, schedule: Q01DX009 (ip), vehicle: Klucel (hydroxypropylcellulose) (HPC)): 100 % of control
T/C (dose: 150.0 mg/kg/injection, schedule: Q01DX009 (ip), vehicle: Klucel (hydroxypropylcellulose) (HPC)): 109 % of control

COc1cccc(CCC(=O)O)c1
T/C (dose: 100.0 mg/kg/injection, schedule: Q04DX003 (ip), vehicle: gum acacia): 100 % of control
T/C (dose: 200.0 mg/kg/injection, schedule: Q04DX003 (ip), vehicle: gum acacia): 104 % of control
T/C (dose: 400.0 mg/kg/injection, schedule: Q04DX003 (ip), vehicle: gum acacia): 113 % of control

O=[N+]([O-])/C=C/c1ccc([N+](=O)[O-])cc1
T/C (dose: 50.0 mg/kg/injection, schedule: Q04DX003 (ip), vehicle: saline with Tween-80): 118 % of control
T/C [9]: 118 % of control

O=C1OC2=C(Cl)C=CC=CC2C12C1C=CC=CC12 (centres undefined)
T/C [14]: 113 % of control
T/C [7]: 110 % of control
T/C [8]: 107 % of control

OC1CCC(O)C1(Cl)Cl (centres undefined)
T/C [6]: 109 % of control
T/C [1]: 108 % of control
T/C [2]: 98 % of control

COc1ccc2nonc2c1
T/C (dose: 25.0 mg/kg/injection, schedule: Q01DX009 (ip), vehicle: saline with Tween-80): 102 % of control
T/C [14]: 93 % of control
T/C [7]: 90 % of control
T/C [8]: 106 % of control

CC(C)NCc1ccccc1Sc1ccccc1CNC(C)C
T/C [13]: 103 % of control
T/C (dose: 100.0 mg/kg/injection, schedule: Q04DX002 (ip), vehicle: saline): 103 % of control

CCCCCCCC(=O)Nc1ccc(C)c(C)c1
T/C [9]: 109 % of control
T/C [10]: 109 % of control
T/C [11]: 109 % of control

O=C(NCCc1ccccc1)Nc1ccccc1
T/C (dose: 75.0 mg/kg/injection, schedule: Q01DX009 (ip), vehicle: saline with Tween-80): 95 % of control
T/C (dose: 150.0 mg/kg/injection, schedule: Q01DX009 (ip), vehicle: saline with Tween-80): 104 % of control
T/C (dose: 300.0 mg/kg/injection, schedule: Q01DX009 (ip), vehicle: saline with Tween-80): 109 % of control

CCCNC(=O)NO
T/C [12]: 119 % of control
T/C (dose: 100.0 mg/kg/injection, schedule: Q04DX003 (ip), vehicle: other): 87 % of control
T/C (dose: 200.0 mg/kg/injection, schedule: Q01DX009 (ip), vehicle: Klucel (hydroxypropylcellulose) (HPC)): 104 % of control
T/C (dose: 200.0 mg/kg/injection, schedule: Q04DX003 (ip), vehicle: other): 104 % of control
T/C (dose: 400.0 mg/kg/injection, schedule: Q01DX009 (ip), vehicle: Klucel (hydroxypropylcellulose) (HPC)): 114 % of control
T/C (dose: 400.0 mg/kg/injection, schedule: Q04DX003 (ip), vehicle: other): 104 % of control

Cc1c2ccnc(-c3ccccc3)c2cc2c1[nH]c1ccccc12
T/C [14]: 102 % of control
T/C [7]: 100 % of control
T/C [8]: 102 % of control

COc1cc(O)c2c(c1)C1=C(C)C(C)(O)OC1=CC2=O (centres undefined)
T/C (dose: 100.0 mg/kg/injection, schedule: Q01DX001 (ip), vehicle: Klucel (hydroxypropylcellulose) (HPC)): 95 % of control
T/C (dose: 200.0 mg/kg/injection, schedule: Q01DX001 (ip), vehicle: Klucel (hydroxypropylcellulose) (HPC)): 100 % of control
T/C (dose: 400.0 mg/kg/injection, schedule: Q01DX001 (ip), vehicle: Klucel (hydroxypropylcellulose) (HPC)): 86 % of control

Oc1ccccc1C=NCCN1CC1.Oc1ccccc1C=NCCN1CC1.[Cu]
T/C (dose: 6.25 mg/kg/injection, schedule: Q01DX001 (ip), vehicle: saline sonified): 104 % of control
T/C (dose: 8.25 mg/kg/injection, schedule: Q01DX001 (ip), vehicle: saline): 104 % of control
T/C (dose: 12.5 mg/kg/injection, schedule: Q01DX001 (ip), vehicle: saline): 112 % of control
T/C (dose: 18.75 mg/kg/injection, schedule: Q01DX001 (ip), vehicle: saline): 124 % of control
T/C (dose: 25.0 mg/kg/injection, schedule: Q01DX001 (ip), vehicle: saline sonified): 118 % of control

S=C(/N=C1\CCC\C1=C/c1ccccc1)/N=C1\CCC\C1=C/c1ccccc1
T/C [9]: 100 % of control
T/C [10]: 109 % of control
T/C [11]: 115 % of control
